The results in this text go back to patent US9012420B2, “Aptamer for chymase, and use thereof” (Ribomic Inc., priority 2009, dated 2015).

Oligonucleotides are written 5' to 3', each unit as a sugar letter and its base; * is a phosphorothioate linkage, no mark a phosphodiester; rarer units and linkages stand in square brackets, end groups in braces. Plain capitals give the bases only. r = 2'-OH (RNA); f = 2'-fluoro

The target in this data set is T1, chymase (recombinant, manufactured by SIGMA) (Homo sapiens, UniProt P23946).
T1 construct: purchased SIGMA; host or cells: yeast
T1 sequence (P23946 22-247): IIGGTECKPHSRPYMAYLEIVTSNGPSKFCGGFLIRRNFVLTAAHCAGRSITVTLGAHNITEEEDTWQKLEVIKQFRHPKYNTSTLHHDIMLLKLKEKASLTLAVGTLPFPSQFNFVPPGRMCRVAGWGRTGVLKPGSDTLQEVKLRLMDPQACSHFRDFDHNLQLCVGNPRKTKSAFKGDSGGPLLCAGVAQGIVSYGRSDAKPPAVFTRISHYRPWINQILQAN
Description: Chymase inhibitory activity using synthetic substrate Suc-Ala-Ala-Pro-Phe-MCA. It counts as biochemical. In outline: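 Human recombinant chymase (16.7 nM or 1.67 nM final) preincubated 5 min at 37° C., then added to nucleic acid (0.0027–2 μM serial dilutions) and 100 μM substrate in solution C. AMC fluorescence (ex 380/em 460 nm) followed 5 or 30 min at 37° C.; slope gives initial velocity, inhibition versus no-inhibitor control yields IC50.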

Setting [1] is: Table 7, same manner as Example 3, mean value of two measurements.
The mark [2] stands for this setting: Table 3, substrate 100 μM, solution C, 37° C., mean value for 2 to 3 measurements.
[3] abbreviates: Table 5, same manner as Example 3, mean value of two measurements.
[4] abbreviates: Table 6, same manner as Example 3, mean value of two measurements.
Setting [5] is: Table 4, same manner as Example 3, mean value for 2 to 3 measurements.

As usually defined, the IC50 is the concentration that gives 50% inhibition. “70 (GGGTTAGAUAGAGUUAAAAACCC; chemistry not given here) [compound 70]”: under setting [1], the IC50 is 27 ± 4 nM. As to `CC(C)C[C@H](NC(=O)[C@@H](NC(=O)N[C@@H](Cc1ccccc1)C(=O)O)[C@@H]1CCN=C(N)N1)C(=O)N[C@H](C=O)Cc1ccccc1` [chymostatin, reference compound], the half-maximal inhibitory concentration (IC50) under setting [2] lay within 100 to 200 nM. Take “GGGU(F)U(F)GAAGAU(F)AU(F)U(F)AAAGAAC(F)C(F)C(F) (GGGUUGAAGAUAUUAAAGAACCC; 2'-fluoro at CU, RNA at AG, backbone not given here) [SEQ ID NO: 58]”: the IC50 reads like this: under setting [3], greater than 1000 nM; under setting [4], greater than 1000 nM; under setting [1], greater than 1000 nM. For “72 (GGGTTAGAUAGAGTUAAAAACCC; chemistry not given here) [compound 72]”, the IC50 under setting [1] amounted to 20 ± 2 nM. “71 (GGGUUAGAUAGAGTUAAAAACCC; chemistry not given here) [compound 71]”: the IC50 under setting [1] was 28 ± 5 nM. For “54 (UAACUAUGGUUAGAUAGAGUUAAAAACCAUAGAAGA; 2'-fluoro at CU, RNA at AG, backbone not given here) [compound 54]”, the IC50 under setting [5] is 51 ± 33 nM. The same measure, in the same setting: the same measure for “53 (GGGUAACUAUGGUUAGAUAGAGUUAAAAACCAUAGAAGACCC; 2'-fluoro at CU, RNA at AG, backbone not given here) [compound 53]”: 66 ± 24 nM.

“56 (GGGUUAGAUAGAGUUAAAAACCC; 2'-fluoro at CU, RNA at AG, backbone not given here) [compound 56]”: the IC50 by setting is: under setting [5], 46 ± 31 nM; under setting [4], 27 ± 2 nM. In the case of “55 (CUAUGGUUAGAUAGAGUUAAAAACCAUAG; 2'-fluoro at CU, RNA at AG, backbone not given here) [compound 55]”, the half-inhibitory concentration (IC50) under setting [5] was 55 ± 23 nM.

“65 (rGrGfCrArGrAfUrArGrArGfUfUrArArArGfCfC) [compound 65]”: the 50% inhibitory concentration (IC50) under setting [3] came out at 56 ± 46 nM.

Turning to “58 (GGGUUGAAGAUAUUAAAGAACCC; 2'-fluoro at CU, RNA at AG, backbone not given here) [compound 58]”, the 50% inhibitory concentration (IC50) under setting [3] was greater than 1000 nM.

B1: 13 (nucleic acid)
chain: rGrGrGrAfCrGrGfUrArGrGrArAfUfUfCfCrGfCrArAfCfCrAfUfCfCfCrGfUrArAfCfUrAfUrGrGfUfUrArGrAfUrArGrArGfUfUrArArArArAfCfCrAfUrArGrArArGrArGfCrGrGfCfCrGfC
modifications: aptamer
Take B1: under setting [2], the IC50 worked out at 58 ± 24 nM.

B2: 4 (nucleic acid)
chain: rGrGrGrAfCrGrGfUrArGrGrArAfUfUfCrGfUfCfCrAfUfUfCfUrAfCrArGrAfUrArGrArGrAfUrArArArGfUrArGrArAfUfUfUrArAfCrArArArAfCrAfUrArGrArArGrArGfCrGrGfCfCrGfC
modifications: aptamer
On to B2, for which, under setting [2], the half-maximal inhibitory concentration (IC50) was determined as 49 ± 3 nM.

B3: 14 (nucleic acid)
chain: rGrGrGrAfCrGrGfUrArGrGrArAfUfUfCfUfCrGfUfUfCfCfUrGrAfCrArGfCrAfUfUfUrGrArGrAfUrArGrAfUfUfUrArArAfCrArArAfCrGfCrAfCrAfUrArGrArArGrArGfCrGrGfCfCrGfC
modifications: aptamer
With B3, under setting [2], the IC50 turned out to be 61 ± 53 nM.
